Tests used:
[1] = system: MRSA (methicillin-resistant Staphylococcus aureus), ATCC 33592; assay: Test Method B2 - Second Antimicrobial Efficacy Testing; format: cell-based; conditions: 4 minutes
Protocol: A 0.22% wt/wt solution of CHG was prepared at a pH of 6. All pH adjustments were made using either gluconic acid or sodium hydroxide. Each of the above excipient solutions (5 mL) were mixed with an equal amount (5 mL) of CHG solution (0.22% wt/wt). The mixtures were allowed to stand for 15 minutes at ambient conditions, along with a control CHG solution. All of these samples were centrifuged at 14,000 g for 15 minutes. After centrifugation, supernatant was carefully transferred to a new vial and submitted for Antimicrobial Efficacy testing (TEST METHOD B2) and HPLC testing (TEST METHOD C2), see below.
For Test Method B2 the above Test Method B was followed, with the following changes: • 1. Bacteria was MRSA (methicillin-resistant Staphylococcus aureus), ATCC 33592, instead of P. aeruginosa. • 2. Inoculum level was approximately 6.2 logs, instead of 5.8 logs. • 3. Incubation time with MRSA was 4 minutes, instead of 2.5 minutes. • 4. Neutralizer was Neutralizing Buffer, instead of D/E Neutralizing Broth. • 5. Incubation of the Petrifilm plates was 38 hours, instead of 43 hours.

[2] = Evaluation of Precipitate Formation with CHG; format: physicochemical; conditions: 1:1 mixture of excipient solution with 3.72% CHG, visual within 30 minutes; for Precipitation at Low pH: low pH per sample
Protocol: It is thought that some excipients (inactives) may form a CHG complex, which is visible as a precipitate. Thus, CHG which complexes with an excipient, forming a precipitate would not be available for antimicrobial efficacy. The purpose of the precipitation formation testing was to observe the potential of an excipient to form a precipitates with CHG under the following test conditions.
Sample excipient solutions were prepared with distilled water to various concentrations of excipients according to Tables 12-16, below. The pH of the solutions was then adjusted to both a low pH and a high pH using either gluconic acid or NaOH. […] After combining the CHG solution with the excipient solution, the vial of the mixture was briefly swirled to mix. The mixtures were visually assessed for the presence/formation of a precipitate within 30 minutes. The results are shown in Tables P1-P5, where “Y” means precipitate was observed; “N” means no precipitate was observed; “*1” means the mixture could not be tested because a gel-like mass was formed when adding gluconic acid to reduce the pH down; and “*2” means the mixture could not be tested because it started to thicken when adding NaOH to raise the pH.

Structure (SMILES)	Log Reduction of MRSA ([1]; CHG 0.22 wt % control, excipient 0.0 wt %)	Precipitation at High pH [2]	Precipitation at Low pH [2]	Log Reduction of MRSA ([1]; supernatant of 0.50 wt % excipient solution mixed with equal amount of 0.22 wt % CHG)
N=C(NCCCCCCNC(=N)NC(=N)Nc1ccc(Cl)cc1)NC(=N)Nc1ccc(Cl)cc1.O=C(O)[C@H](O)[C@@H](O)[C@H](O)[C@H](O)CO.O=C(O)[C@H](O)[C@@H](O)[C@H](O)[C@H](O)CO [CHG Control, 1,11-hexamethylene bis[5-(p-chlorophenyl)biguanide]di-D-gluconate, reference compound]	3.0			
O=C1NS(=O)(=O)c2ccccc21.[Na] [P1, Sodium Saccharin]		Y	Y	
C/C=C/C=C/C(=O)[O-].[K+] [P4, Potassium Sorbate]		Y		
O=C([O-])c1ccccc1.[Na+] [P7, Sodium Benzoate]		Y	Y	
[Cl-].[K+] [P10, KCL]		Y	Y	
[Cl-].[K+] [P11, KCL]		Y	Y	
[Cl-].[K+] [P12, KCL]		N	N	
[Cl-].[Na+] [P13, NaCl]		Y	Y	
O=P(O)(O)O [P16, H3PO4]		Y	Y	
O=C(O)CC(O)(CC(=O)O)C(=O)O [P19, Citric Acid]		Y	Y	
O=C1[N-]S(=O)(=O)c2ccccc21.[Na+] [Sodium Saccharin, Benzoic Sulphimide Sodium Salt]				0.0

Source: patent US8460689B2, “Oral care method and kit” (3M Innovative Properties Company, priority 2009, dated 2013)
